Experimental data from US9260439B2, “Dihydropyrrolopyrimidine derivatives” (PFIZER INC., priority 2014, dated 2016).
Where a name gives a salt, the structure may show the parent alone.

molecular target: truncated PI3Kα (p110α/iSH2 p85α) (Homo sapiens (Human), UniProt P42336); assay: PI3KA_Act fluorescence polarization kinase assay (Ki); type: biochemical; details: 1 mM ATP
How it was run: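 Ki values result from fitting fluorescence polarization signals to the Morrison equation for tight-binding competitive inhibitors. The detector was GST-Grp1 PH domain with TAMRA-PIP3, read after a 30 min room-temperature reaction of 0.5 nM truncated PI3Kα and 30 μM PIP2 at pH 7.4 in HEPES/NaCl/MgCl2/DTT/CHAPS buffer. Compounds were tested as 12-point 3-fold dilutions from 3 μM.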

Sequence of truncated PI3Kα (p110α/iSH2 p85α) (P42336 whole entry, the tested form may be a part): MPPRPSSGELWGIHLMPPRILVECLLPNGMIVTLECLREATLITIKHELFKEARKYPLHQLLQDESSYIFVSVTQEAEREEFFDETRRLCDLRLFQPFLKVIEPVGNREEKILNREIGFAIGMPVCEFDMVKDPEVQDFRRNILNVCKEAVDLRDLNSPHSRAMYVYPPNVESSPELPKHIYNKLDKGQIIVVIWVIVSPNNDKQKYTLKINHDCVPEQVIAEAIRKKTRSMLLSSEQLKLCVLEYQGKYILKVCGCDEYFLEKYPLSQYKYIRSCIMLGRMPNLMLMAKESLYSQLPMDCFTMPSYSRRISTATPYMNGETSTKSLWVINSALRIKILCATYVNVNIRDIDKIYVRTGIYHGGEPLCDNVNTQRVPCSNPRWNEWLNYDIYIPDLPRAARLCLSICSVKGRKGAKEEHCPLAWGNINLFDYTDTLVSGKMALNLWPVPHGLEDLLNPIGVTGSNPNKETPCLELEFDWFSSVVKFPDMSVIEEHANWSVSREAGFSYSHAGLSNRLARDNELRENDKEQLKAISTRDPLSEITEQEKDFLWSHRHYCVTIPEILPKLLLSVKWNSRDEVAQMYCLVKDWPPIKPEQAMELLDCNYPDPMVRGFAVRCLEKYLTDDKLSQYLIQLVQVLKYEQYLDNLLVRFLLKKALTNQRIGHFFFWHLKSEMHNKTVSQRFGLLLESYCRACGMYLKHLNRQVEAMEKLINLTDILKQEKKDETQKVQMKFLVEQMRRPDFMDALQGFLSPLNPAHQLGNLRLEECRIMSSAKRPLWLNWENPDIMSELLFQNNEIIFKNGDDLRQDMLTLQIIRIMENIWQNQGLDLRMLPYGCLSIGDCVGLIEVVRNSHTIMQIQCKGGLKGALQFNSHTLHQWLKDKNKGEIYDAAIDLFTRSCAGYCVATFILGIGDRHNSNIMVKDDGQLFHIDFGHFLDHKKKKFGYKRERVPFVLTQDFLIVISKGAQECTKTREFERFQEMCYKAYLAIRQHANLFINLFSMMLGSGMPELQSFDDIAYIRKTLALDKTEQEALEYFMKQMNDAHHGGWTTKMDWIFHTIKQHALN

Q: `C[C@H]1COCCN1c1nc(-c2cnc(N)nc2)c2c(n1)N(C1CN(C(=O)C(C)(C)O)C1)CC2` [Example 454, 1-(3-{4-(2-aminopyrimidin-5-yl)-2-[(3S)-3-methylmorpholin-4-yl]-5,6-dihydro-7H-pyrrolo[2,3-d]pyrimidin-7-yl}azetidin-1-yl)-2-hydroxy-2-methylpropan-1-one] was tested. Which “PI3KA_Act Ki” value did it give?
A: 0.387 nM

Q: With `C[C@H]1COCCN1c1nc(-c2cnc(N)nc2)c2c(n1)N([C@@]1(C)CCN(C(=O)C(C)(C)CO)C1)CC2.Cl` [Example 474, 1-[(3S)-3-{4-(2-aminopyrimidin-5-yl)-2-[(3S)-3-methylmorpholin-4-yl]-5,6-dihydro-7H-pyrrolo[2,3-d]pyrimidin-7-yl}-3-methylpyrrolidin-1-yl]-3-hydroxy-2,2-dimethylpropan-1-one hydrochloride] as the compound, how does the “PI3KA_Act Ki” value read?
A: 0.045 nM

Q: Which “PI3KA_Act Ki” value does the source give for `C[C@H]1COCCN1c1nc(-c2cnc(N)nc2)c2c(n1)N(C1(C)CN(S(N)(=O)=O)C1)CC2` [Example 219] here?
A: 0.037 nM

Q: How did the “PI3KA_Act Ki” value turn out when `C[C@]1(N2CCc3c(-c4cnc(N)nc4)nc(N4CCOCC4)nc32)CCNC1.Cl` [Example 253, 5-{7-[(3S)-3-methylpyrrolidin-3-yl]-2-(morpholin-4-yl)-6,7-dihydro-5H-pyrrolo[2,3-d]pyrimidin-4-yl}pyrimidin-2-amine hydrochloride] was run?
A: 0.160 nM

Q: Which “PI3KA_Act Ki” value does the source give for `C[C@@H](O)COC(=O)N1CC(N2CCc3c(-c4cnc(N)nc4)nc(N4CCOCC4)nc32)C1` [Example 185] here?
A: 0.182 nM

Q: How did the “PI3KA_Act Ki” value turn out when `Cn1cc(S(=O)(=O)N2CC(N3CCc4c(-c5cnc(N)nc5)nc(N5CCOCC5)nc43)C2)cn1` [Example 178] was run?
A: 0.125 nM

Q: With `CC1(N2CCc3c(-c4cnc(N)nc4)nc(N4CCOCC4)nc32)CN(S(=O)(=O)C2CC2)C1` [Example 197] as the compound, how does the “PI3KA_Act Ki” value read?
A: 0.040 nM

Q: `C[C@@H](O)C(=O)N1CC[C@](C)(N2CCc3c(-c4cnc(N)nc4)nc(N4CCOC[C@@H]4C)nc32)C1` [Example 471, (2R)-1-[(3S)-3-{4-(2-aminopyrimidin-5-yl)-2-[(3S)-3-methylmorpholin-4-yl]-5,6-dihydro-7H-pyrrolo[2,3-d]pyrimidin-7-yl}-3-methylpyrrolidin-1-yl]-2-hydroxypropan-1-one] was tested. Which “PI3KA_Act Ki” value did it give?
A: 0.037 nM

Q: Which “PI3KA_Act Ki” value does the source give for `C[C@H]1COCCN1c1nc(-c2cnc(N)nc2)c2c(n1)N([C@@]1(C)CCN(C(=O)C3(N)CC3)C1)CC2.Cl` [Example 492, (1-aminocyclopropyl)[(3S)-3-{4-(2-aminopyrimidin-5-yl)-2-[(3S)-3-methylmorpholin-4-yl]-5,6-dihydro-7H-pyrrolo[2,3-d]pyrimidin-7-yl}-3-methylpyrrolidin-1-yl]methanone hydrochloride] here?
A: 0.101 nM

Q: Which “PI3KA_Act Ki” value does the source give for `C[C@@H]1CN(C(=O)OC(C)(C)C)C[C@@]1(C)N1CCc2c(-c3cnc(N)nc3)nc(N3CCOC[C@@H]3C)nc21` [Example 510, tert-butyl (3S,4R)-3-{4-(2-aminopyrimidin-5-yl)-2-[(3S)-3-methylmorpholin-4-yl]-5,6-dihydro-7H-pyrrolo[2,3-d]pyrimidin-7-yl}-3,4-dimethylpyrrolidine-1-carboxylate] here?
A: <0.018 nM

Q: How did the “PI3KA_Act Ki” value turn out when `CP(C)(=O)N1CC[C@H](N2CCc3c(-c4cnc(N)nc4)nc(N4CCOCC4)nc32)C1` [Example 181] was run?
A: 0.296 nM

Q: Which Ki does the source give for `CS(=O)(=O)N1C[C@H]2C[C@@H]1[C@@H]2N1CCc2c(-c3cnc(N)nc3)nc(N3CCOCC3)nc21` (single isomer, unassigned) [Example 440] here?
A: 0.178 nM

Q: Which “PI3KA_Act Ki” value does the source give for `C[C@H]1COCCN1c1nc(-c2cnc(N)nc2)c2c(n1)N([C@H]1[C@@H]3CNC[C@@H]31)CC2.Cl` [Example 522, 5-{7-[(1R,5S,6s)-3-azabicyclo[3.1.0]hex-6-yl]-2-[(3S)-3-methylmorpholin-4-yl]-6,7-dihydro-5H-pyrrolo[2,3-d]pyrimidin-4-yl}pyrimidin-2-amine hydrochloride] here?
A: 6.845 nM

Q: `CN[C@H]1C[C@@H](N2CCc3c(-c4cnc(N)nc4)nc(N4CCOC[C@@H]4C)nc32)C1.Cl` [Example 444, 5-{7-[cis-3-(methylamino)cyclobutyl]-2-[(3S)-3-methylmorpholin-4-yl]-6,7-dihydro-5H-pyrrolo[2,3-d]pyrimidin-4-yl}pyrimidin-2-amine hydrochloride] was tested. Which “PI3KA_Act Ki” value did it give?
A: 2.125 nM

Q: Which “PI3KA_Act Ki” value does the source give for `COC(=O)N1CC[C@](C)(N2CCc3c(-c4cnc(N)nc4)nc(N4CCOC[C@@H]4C)nc32)C1` [Example 508, methyl (3S)-3-{4-(2-aminopyrimidin-5-yl)-2-[(3S)-3-methylmorpholin-4-yl]-5,6-dihydro-7H-pyrrolo[2,3-d]pyrimidin-7-yl}-3-methylpyrrolidine-1-carboxylate] here?
A: <0.018 nM

Q: For `CNC(=O)COC(=O)N1CC(N2CCc3c(-c4cnc(N)nc4)nc(N4CCOC[C@@H]4C)nc32)C1` [Example 143], which “PI3KA_Act Ki” value is on record?
A: 0.262 nM

Q: `C[C@H]1COCCN1c1nc(-c2cnc(N)nc2)c2c(n1)N([C@H]1C[C@@H](N)C1)CC2.Cl` [Example 442, 5-{7-(cis-3-aminocyclobutyl)-2-[(3S)-3-methylmorpholin-4-yl]-6,7-dihydro-5H-pyrrolo[2,3-d]pyrimidin-4-yl}pyrimidin-2-amine hydrochloride] was tested. Which “PI3KA_Act Ki” value did it give?
A: 1.349 nM

Q: For `CS(=O)(=O)N1C[C@@H]2C[C@H]1[C@H]2N1CCc2c(-c3cnc(N)nc3)nc(N3CCOCC3)nc21` [Example 441, 5-{7-[(1S,4S,5S)-2-(methylsulfonyl)-2-azabicyclo[2.1.1]hex-5-yl]-2-(morpholin-4-yl)-6,7-dihydro-5H-pyrrolo[2,3-d]pyrimidin-4-yl}pyrimidin-2-amine], which Ki is on record?
A: 0.432 nM

Q: Which “PI3KA_Act Ki” value does the source give for `CC(C)(CNS(C)(=O)=O)N1CCc2c(-c3cnc(N)nc3)nc(N3CCOCC3)nc21` [Example 191] here?
A: 0.881 nM

Q: Which “PI3KA_Act Ki” value does the source give for `C[C@]1(N2CCc3c(-c4cnc(N)nc4)nc(N4CCOCC4)nc32)CCN(C(=O)[C@@]2(C)CCN2)C1` [Example 351, {(3S)-3-[4-(2-aminopyrimidin-5-yl)-2-(morpholin-4-yl)-5,6-dihydro-7H-pyrrolo[2,3-d]pyrimidin-7-yl]-3-methylpyrrolidin-1-yl}[(2R)-2-methylazetidin-2-yl]methanone] here?
A: 0.059 nM

Q: How did the “PI3KA_Act Ki” value turn out when `C[C@]1(N2CCc3c(-c4cnc(N)nc4)nc(N4CCOCC4)nc32)CCN(C(=O)[C@@H](N)C(F)(F)F)C1.Cl` [Example 313, (2R)-2-amino-1-{(3S)-3-[4-(2-aminopyrimidin-5-yl)-2-(morpholin-4-yl)-5,6-dihydro-7H-pyrrolo[2,3-d]pyrimidin-7-yl]-3-methylpyrrolidin-1-yl}-3,3,3-trifluoropropan-1-one hydrochloride] was run?
A: 0.128 nM

Q: How did the “PI3KA_Act Ki” value turn out when `CC(C)(O)CN1CC[C@@](C)(N2CCc3c(-c4cnc(N)nc4)nc(N4CCOCC4)nc32)C1` [Example 276, 1-{(3R)-3-[4-(2-aminopyrimidin-5-yl)-2-(morpholin-4-yl)-5,6-dihydro-7H-pyrrolo[2,3-d]pyrimidin-7-yl]-3-methylpyrrolidin-1-yl}-2-methylpropan-2-ol] was run?
A: 0.182 nM

Q: For `C[C@]1(N2CCc3c(-c4cnc(N)nc4)nc(N4CCOCC4)nc32)CCN(C2CCCNC2=O)C1` (single isomer, unassigned) [Example 428], which “PI3KA_Act Ki” value is on record?
A: 0.067 nM

Q: `C[C@H]1COCCN1c1nc(-c2cnc(N)nc2)c2c(n1)N([C@@H]1[C@H]3CN[C@@H]1C3)CC2` [Example 526, 5-{7-[(1R,4R,5R)-2-azabicyclo[2.1.1]hex-5-yl]-2-[(3S)-3-methylmorpholin-4-yl]-6,7-dihydro-5H-pyrrolo[2,3-d]pyrimidin-4-yl}pyrimidin-2-amine hydrochloride] was tested. Which Ki did it give?
A: 9.43 nM

Q: Which “PI3KA_Act Ki” value does the source give for `C[C@]1(N2CCc3c(-c4cnc(N)nc4)nc(N4CCOCC4)nc32)CCN(C2CCNC2=O)C1` (single isomer, unassigned) [Example 7] here?
A: 0.091 nM

Q: With `CN1CC[C@H](OC(=O)N2CC[C@](C)(N3CCc4c(-c5cnc(N)nc5)nc(N5CCOCC5)nc43)C2)C1` [Example 417, (3S)-1-methylpyrrolidin-3-yl (3S)-3-[4-(2-aminopyrimidin-5-yl)-2-(morpholin-4-yl)-5,6-dihydro-7H-pyrrolo[2,3-d]pyrimidin-7-yl]-3-methylpyrrolidine-1-carboxylate] as the compound, how does the “PI3KA_Act Ki” value read?
A: <0.018 nM

Q: For `CC1(N2CCc3c(-c4cnc(N)nc4)nc(N4CCOCC4)nc32)CCNCC1.Cl` [Example 430, 5-[7-(4-methylpiperidin-4-yl)-2-(morpholin-4-yl)-6,7-dihydro-5H-pyrrolo[2,3-d]pyrimidin-4-yl]pyrimidin-2-amine hydrochloride], which “PI3KA_Act Ki” value is on record?
A: 0.785 nM

Q: With `CC1(N2CCc3c(-c4cnc(N)nc4)nc(N4CCOCC4)nc32)CN(S(C)(=O)=O)C1` [Example 209] as the compound, how does the “PI3KA_Act Ki” value read?
A: 0.045 nM

Q: `C[C@H]1COCCN1c1nc(-c2cnc(N)nc2)c2c(n1)N([C@H]1C[C@H](NC(=O)OC(C)(C)C)C1)CC2` [Example 446, tert-butyl (trans-3-{4-(2-aminopyrimidin-5-yl)-2-[(3S)-3-methylmorpholin-4-yl]-5,6-dihydro-7H-pyrrolo[2,3-d]pyrimidin-7-yl}cyclobutyl)carbamate] was tested. Which “PI3KA_Act Ki” value did it give?
A: 0.433 nM

Q: With `C[C@H]1COCCN1c1nc(-c2cnc(N)nc2)c2c(n1)N(C1CN(S(=O)(=O)C(F)(F)F)C1)CC2` [Example 163] as the compound, how does the “PI3KA_Act Ki” value read?
A: 0.188 nM

Q: How did the “PI3KA_Act Ki” value turn out when `C[C@H]1COCCN1c1nc(-c2cnc(N)nc2)c2c(n1)N(C1CN(P(C)(C)=O)C1)CC2` [Example 166] was run?
A: 0.280 nM

Q: `CC(C)[C@@H](O)C(=O)N1CC[C@](C)(N2CCc3c(-c4cnc(N)nc4)nc(N4CCOC[C@@H]4C)nc32)C1` [Example 472, (2R)-1-[(3S)-3-{4-(2-aminopyrimidin-5-yl)-2-[(3S)-3-methylmorpholin-4-yl]-5,6-dihydro-7H-pyrrolo[2,3-d]pyrimidin-7-yl}-3-methylpyrrolidin-1-yl]-2-hydroxy-3-methylbutan-1-one] was tested. Which “PI3KA_Act Ki” value did it give?
A: 0.044 nM

same assay, conditions: 1 mM ATP, hydrochloride

Q: For `C[C@H]1COCCN1c1nc(-c2cnc(N)nc2)c2c(n1)N(C1(C)CCCNC1)CC2` (single isomer, unassigned) [Example 518, hydrochloride], which “PI3KA_Act Ki” value is on record?
A: 11.285 nM
